The values that follow come from patent US8859503B2, “Methods and compositions targeting viral and cellular ITAM motifs, and use of same in identifying compounds with therapeutic activity” (priority 2005, dated 2014).

One series deals with T1, Syk (Mus musculus, UniProt P48025).
T1 construct: Whole cell lyastes of Bal-17 B cells (3×10^7) were used; endogenous in cells; host or cells: Bal-17 B cells (whole cell lysate)
In words: Peptide:Syk binding assay (biotin-peptide pull-down from Bal-17 B cell lysates). Conditions: peptide 50 μM; Bal-17 whole cell lysates; n=3. Here is the method:
Whole cell lyastes of Bal-17 B cells (3×10^7) were used for quantification of ITAM peptide interactions. Equivalent cell lysates were mixed with either biotin-KRPPAVLL (control peptide; SEQ ID No 46) or biotin-KRPPYVLL (ITAM peptide; SEQ ID No 47) in concentration between 10-50 μM. Pull-downs were performed with Immobilized Neutravidin Protein (Pierce), as previously described. The resulting lysate pull-downs were run on SDS-PAGE were detected by Western blotting with rabbit anti-Syk antibody (N-19, Santa Cruz). Donkey anti-rabbit IgG-alkaline phosphatase conjugated antibody was used as a secondary antibody (Jackson ImmunoResearch Laboratories). For development and quantification, an ECF substrate was used followed by a scan using Storm 860 and analysis by ImageQuant 5.2 (all obtained from Amersham Biosciences).

Another series has as its target T2, Syk-GFP (Mus musculus, UniProt P48025).
T2 construct: host or cells: Human 293T cells, transient transfection
In words: Co-localization of dsRed peptide chimeras with Syk-GFP in 293T cells by confocal microscopy. The format is cell-based. Conditions: transiently transfected human 293T cells. From the text:
Peptide conjugates were produced by QuikChange XL® kit from Stratagene. The dsRed2-C1 construct (BD Clontech) was modified using the following primers: dsRed.YVLL: 5′-[…]-3′ (SEQ ID No 42); and 5′-[…]-3 (SEQ ID No 43).
dsRed.KRPPYVLL: 5′-[…]-3′ (SEQ ID No 44); and 5′-[…]-3′ (SEQ ID No 45). The Syk-eGFP construct was a provided by Dr. Robert Geahlen (Purdue University).
For laser scanning microscopy a Zeiss LSM510 META laser scanning confocal module on a Zeiss Axiovert 200M inverted microscope was used. Objective used: C-APO 40×/1.2 water DIC. Lasers: 488 nm laser line from Argon laser (30 mW) for eGFP excitation; 543 nm laser line from HeNe laser (1 mW) for dsRed excitation. Analysis was performed on Zeiss LSM510 META v3.2 software.

The nature of series [1]: Water solubility of the ITAM fragment. The series is classed as physicochemical.
Series [2] deals with Env-expressing NMuMG cells. The series can be described thus: Three-dimensional Matrigel cultures of MMTV Env-expressing NMuMG cells (acinar structure morphology/size). The series is classed as cell-based, murine. How it is done: NMuMG cells (5×10^3 cells per chamber) were cultured on Matrigel® (BD Biosciences) cushions. Assay medium (DMEM/F12 supplemented with 2% donor horse serum, 10 μg/ml insulin, 1 ng/ml cholera toxin, 100 μg/ml hydrocortisone, 50 U/ml penicillin, and 50 μg/ml streptomycin) containing 2% Matrigel was replaced every 4 days. The structures were analyzed, at a magnification of 20, on a Zeiss Axiovert 200M equipped with PCO SensiCam video camera and Slidebook® software (Intelligent Imaging Innovations). Cell staining was performed with rat anti-human Keratin-18 (Lab Vision), rat anti-human E-cadherin and goat anti-rat IgG-FITC conjugated antibodies (Jackson ImmunoResearch Laboratories), or goat anti-rat IgG-Alexa-555 conjugated antibodies (Molecular Probes). Quantification of structure size was performed using a 10×50-μm grid reticule (Fisher Scientific) and 20-100 structures were counted from each chamber. The inhibitors PP2 and Piceatannol (EMD) were added on day 3 of culture, and pictures were taken on day 6. In apoptosis assays, TNF (R&D Systems) or TRAIL (BIOMOL Research Laboratories, Inc) were added on day 5 of culture, and pictures were taken on day 6. TUNEL assay was performed using a kit from Roche Applied Science (Indianapolis, Ind.).
NmuMG (wild-type or Env-expressing) or Mm5MT cells (10^4) were incubated on Matrigel (BD Labware) for six days, as described previously. Cells were treated with or without ITAM peptide (10 μM) or the Syk inhibitors piceatannol (1 μg/ml) and SI-31 (100 nM) (EMD). The acinar structures were analyzed and captured, at a magnification of 20×, on a Zeiss Axiovert 200M equipped with PCO SensiCam video camera and Slidebook v4 software (Intelligent Imaging Innovations). Three-dimensional structures >50 μm were considered enlarged. Data shown is based on size of 50 random acini.

A further series concerns Mm5MT cells. The series can be described thus: Three-dimensional Matrigel cultures of MMTV+ Mm5MT tumor cells. The series is classed as cell-based. Particulars: for reversion to round 3D phenotype: six days. How it is done: NmuMG (wild-type or Env-expressing) or Mm5MT cells (10^4) were incubated on Matrigel (BD Labware) for six days, as described previously. […] The acinar structures were analyzed and captured, at a magnification of 20×, on a Zeiss Axiovert 200M equipped with PCO SensiCam video camera and Slidebook v4 software (Intelligent Imaging Innovations). Three-dimensional structures >50 μm were considered enlarged. Data shown is based on size of 50 random acini.

Series [3] relates to NIH3T3 cells expressing the ITAM-containing MAHB chimera. The series can be described thus: Soft agar colony formation assay of NIH3T3 cells expressing the ITAM-containing MAHB chimera. The format is cell-based, murine. How it is done: NIH3T3 cells expressing the ITAM-containing MAHB chimera (1×10^4) were suspended in 0.3% agar in DMEM containing 10% FBS. Cells from each transduction group were plated in 6-well plates pre-coated with 0.6% agar base in DMEM containing 10% FBS. Cells were fed with fresh top agar (0.3% agar in DMEM with 10% FBS, with or without ITAM peptide) every 5 days. Colonies were counted and measured using a graduated reticule under microscope at 10× magnification on day 21.

In the next series the test system is mouse splenic B cells. In words: B lymphocyte stimulation and proliferation ([3H] thymidine incorporation). The format is cell-based. Conditions: 20 μM peptide. Here is the method:
Proliferation of mouse splenic B cells: cells (5×10^5) were incubated for 48 h in the presence or absence of 20 μM peptide and stimulated with 10 μg/ml anti-BCR antibodies (Jackson ImmunoResearch Laboratories), LPS (Sigma) or anti-CD40 antibodies (BD Pharmingen). [^3H] Thymidine incorporation (1 μCi/well) was measured in the last 4 h of the experiment.

Series [4] concerns ITAM-based BCR signaling (tyrosine phosphorylation) in splenic B cells. In words: Western blotting for tyrosine phosphorylation after anti-BCR stimulation. The format is cell-based, mouse. Here is the method:
Splenic B cells (10^7) were pre-incubated with 0-100 μM ITAM peptide for 3 h at 37° C. and then stimulated with anti-BCR antibodies as above for further 5 min. Lysates (20 μg/lane) were run on SDS-PAGE, blotted and detected with anti-phosphotyrosine antibody (4G10-HRP; Upstate Biotech). Molecular weights shown are based on the molecular weight markers.
(A western blot detects proteins with antibodies after separation by electrophoresis.)

The test system of the next series is RBL-2H3 cells. The series can be described thus: FcεR1-mediated degranulation of RBL-2H3 cells (hexosaminidase activity). The format is cell-based. Conditions: ITAM peptide 25 μM; anti-DNP IgE 1 μg/ml, DNP-HSA 10 ng/ml. How it is done: The effect of ITAM peptide on mast cell function was evaluated by degranulation induced by FcεR1 cross-linking. RBL-2H3 cells (5×10^4) were incubated overnight with anti-DNP IgE (1 μg/ml). Subsequently, degranulation was induced with DNP-HSA (10 ng/ml, 2 h), in the presence or absence of ITAM peptide (25 μM). Degranulation, as detected by hexosaminidase activity, is depicted as percent of maximal activity obtained from whole cell lysates.

“Also recorded” adds a separate entry of the source. Ends that are not written are not given here. * marks the point of attachment. Biotin = O=C1N[C@H]2[C@H](CS[C@H]2CCCCC(=O)*)N1

T2 sequence (P48025 whole entry): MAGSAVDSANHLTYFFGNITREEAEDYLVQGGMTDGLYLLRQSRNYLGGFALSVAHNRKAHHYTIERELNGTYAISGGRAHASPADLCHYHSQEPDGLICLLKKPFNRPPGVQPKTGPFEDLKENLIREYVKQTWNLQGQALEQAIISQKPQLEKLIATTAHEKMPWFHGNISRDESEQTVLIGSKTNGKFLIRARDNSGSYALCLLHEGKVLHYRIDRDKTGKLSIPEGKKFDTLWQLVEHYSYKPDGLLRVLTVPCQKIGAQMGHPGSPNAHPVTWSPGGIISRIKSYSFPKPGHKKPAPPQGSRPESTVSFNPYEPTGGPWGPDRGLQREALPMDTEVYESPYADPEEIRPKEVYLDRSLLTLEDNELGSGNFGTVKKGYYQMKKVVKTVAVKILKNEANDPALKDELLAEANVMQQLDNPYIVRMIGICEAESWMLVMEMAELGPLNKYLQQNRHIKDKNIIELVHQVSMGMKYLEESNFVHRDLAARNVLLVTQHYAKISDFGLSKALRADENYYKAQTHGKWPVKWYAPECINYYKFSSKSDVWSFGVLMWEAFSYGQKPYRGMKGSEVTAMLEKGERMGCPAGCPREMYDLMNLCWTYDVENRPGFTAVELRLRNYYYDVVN
T1 sequence (P48025 whole entry): as above

With Biotin-KRPPYVLL, the “Syk detected in pull-down, over control peptide biotin-KRPPAVLL” value at Syk is 1.5- to 2 fold.

For the molecule “dsRed.KRPPYVLL: dsRed chimera protein with the entire 8 amino acid ITAM fragment (dsRed-KRPPYVLL)”, in the series with Syk-GFP, the “co-localization with Syk-GFP” value is on record as “co-localization was still detected”.

In the case of Ac-KRPPYVLL [KRPPYVLL], in [1], the water solubility result is given as “water-soluble”.

Regarding `CC(C)(C)n1nc(-c2ccc(Cl)cc2)c2c(N)ncnc21` [PP2], in [2] (Env+ NMuMG 3D cultures, inhibitor 500 ng/ml added on day 3, imaged on day 6), the “morphological changes associated with Env transformation” value is “sufficient to block morphological changes associated with Env transformation”. Also, the “phenotypic reversal of transformed phenotype to normal round acini” value (from here on “phenotypic reversal”) in series [2] (Src inhibitor PP2, concentration not printed for this experiment) was “effective in phenotypic reversal”.

Turning to `Cn1cc(C=C2C(=O)Nc3ccc(S(N)(=O)=O)cc32)c2ccccc21` [SI-31, reference compound], in series [2] (SI-31 100 nM, six days), the “phenotypic reversal” value is “effective in phenotypic reversal”. Besides, the “reversion to round 3D phenotype” value with Mm5MT cells (SI-31 100 nM) is listed as “readily apparent”.

Take Ac-KRPPYVLL-OH [ITAM peptide]: the “phenotypic reversal” value in series [2] (ITAM peptide 10 μM, Env-expressing NMuMG on Matrigel six days) was “as effective in phenotypic reversal as the Src inhibitor PP2 and Syk inhibitors Piceatannol and SI-31”. Also, the Mm5MT acini phenotype result with Mm5MT cells (3D cultures on Matrigel six days, treated with ITAM peptide, Src or Syk inhibitors) is “exhibited a more round phenotype”. For the same molecule, the “reversion to round 3D phenotype” value in the series on Mm5MT cells (ITAM peptide 20 μM (5-20 μM tested)) is given as “readily apparent”. For the same molecule, the “size and number of colonies formed” value in series [3] (ITAM peptide 0-20 μM added with feeding media, colonies >75 μm scored on day 21) is “reduction in both size and number of colonies formed”. For the same molecule, in [3] (chronic treatment with ITAM peptide in feeding media), the “colony formation of ITAM+ fibroblasts” value is “sufficient to reduce colony formation”. Moreover, the “BCR-induced proliferation ([3H] thymidine incorporation)” value in the series with mouse splenic B cells (48 h, 10 μg/ml anti-BCR antibodies) is recorded as “inhibition of BCR-induced proliferation; also recorded: highly significant (p=0.0017)”. Further, the “stimulation of B lymphocytes by LPS (non-ITAM)” value in the series with mouse splenic B cells (LPS 20 μg/ml, data not shown) is “no significant effect”. In addition, the “stimulation of B lymphocytes through CD40 (non-ITAM)” value with mouse splenic B cells (anti-CD40 5 μg/ml, data not shown) was “no significant effect”. Also, the “tyrosine phosphorylation associated with ITAM-based BCR signaling” value is reported as “neither stimulatory nor inhibitory” in [4] (higher concentrations of the peptide) and “visibly reduced; also recorded: Inhibition of tyrosine phosphorylation was confirmed” in [4] (relevant peptide concentrations (0-100 μM tested), 3 h pre-incubation, anti-BCR 5 min, data not shown). Further, in the series with RBL-2H3 cells, the “FcεRI-induced degranulation (hexosaminidase activity)” value is recorded as “significantly inhibited; also recorded: significant reduction (p=0.093)”.

Turning to “dsRed.YVLL: dsRed chimera protein with 4 amino acids (YVLL) of the ITAM fragment (dsRed-YVLL)”, in the series with Syk-GFP, the “co-localization with Syk-GFP” value was “co-localization was readily observed”.
